The source of these data is patent US11091494B2, “Crystal form of acalabrutinib and preparation method and use thereof” (Crystal Pharmaceutical (Suzhou) Co., Ltd., priority 2018, dated 2021).

Common to all, as to assay type: physicochemical
Series [1] in a line: Stability of crystalline form on storage, checked by XRPD. The conditions noted are these: for Solid form: XRPD; for Chemical purity on storage: at least 2 months. The method, then: Approximately 10 mg of Form A of the present disclosure was weighed and stored at different conditions of 25° C./60% RH in open dish, 25° C./60% RH in closed dish, 40° C./75% RH in open dish, and 40° C./75% RH in closed dish. Crystalline forms were checked by XRPD.
Approximately 10 mg of Form D of the present disclosure was weighed and stored at different conditions of 25° C./60% RH in closed dish, 25° C./60% RH in open dish, 40° C./75% RH in closed dish. Crystalline form was checked by XRPD.
Approximately 10 mg of Form F of the present disclosure was weighed and stored at different conditions of 25° C./60% RH in closed dish, 25° C./60% RH in open dish, and 40° C./75% RH in closed dish, 40° C./75% RH in open dish. Crystalline forms were checked by XRPD.
Approximately 10 mg of Form G of the present disclosure was weighed and stored at 25° C./60% RH in closed dish. Crystalline forms were checked by XRPD.
Approximately 10 mg of Form CS15 of the present disclosure was weighed and stored at different conditions of 25° C./60% RH in open dish, 25° C./60% RH in closed dish. Crystalline forms were checked by XRPD.

A short description of series [2]: Hygroscopicity by dynamic vapor sorption (DVS). The conditions noted are these: 80% RH, 25° C.; for Hygroscopicity: Chinese Pharmacopoeia 2015 definition; for Weight gain: DVS. The method, then:
Dynamic vapor sorption (DVS) was applied to test hygroscopicity of Form A with about 10 mg of sample. Weight changes at each relative humidity were recorded in a cycle of 0-95%-0 RH at 25° C.±1° C.
Description and definition of hygroscopicity (general notice 9103 drug hygroscopicity test guidelines in 2015 edition of Chinese Pharmacopoeia, test at 25° C.+/−1° C., 80% RH). • deliquescent: Sufficient water is absorbed to form a liquid; • very hygroscopic: Increase in mass is equal to or greater than 15 percent; • hygroscopic: Increase in mass is less than 15 percent and equal to or greater than 2 percent; • slightly hygroscopic: Increase in mass is less than 2 percent and equal to or greater than 0.2 percent. • non hygroscopic or almost non hygroscopic: Increase in mass is less than 0.2%.
Dynamic vapor sorption (DVS) was applied to test hygroscopicity of Form F with about 10 mg of sample. Weight changes at each relative humidity were recorded in a cycle of 0-95%-0 RH at 25° C.±1° C. DVS plot is substantially as depicted in FIG. 32, and XRPD patterns before and after DVS are compared in FIG. 33.
Description and definition of hygroscopicity (general notice 9103 drug hygroscopicity test guidelines in 2015 edition of Chinese Pharmacopoeia, test at 25° C. +/−1° C., 80% RH). • deliquescent: Sufficient water is absorbed to form a liquid; • very hygroscopic: Increase in mass is equal to or greater than 15 percent; • hygroscopic: Increase in mass is less than 15 percent and equal to or greater than 2 percent; • slightly hygroscopic: Increase in mass is less than 2 percent and equal to or greater than 0.2 percent. • non hygroscopic or almost non hygroscopic: Increase in mass is less than 0.2%.
Dynamic vapor sorption (DVS) was applied to test hygroscopicity of Form CS15 with about 10 mg of sample. Weight changes at each relative humidity were recorded in a cycle of 0-95%-0 RH at 25° C.±1° C. DVS plot is substantially as depicted in FIG. 38, and XRPD patterns before and after DVS are compared in FIG. 39.

Series [3] in a line: Adhesiveness (amount of material sticking to the punch). The settings on record: about 30 mg, φ8 mm round tooling, 10 kN, compression repeated twice. The method, then: Approximately 30 mg of Form A and Form I in WO2017002095A1 were weighed, added into the dies of a φ8 mm round tooling, compressed at 10 kN and held for about 30 s. The amount of material sticking to the punch was weighed. The compression was repeated twice and the cumulative amount and average amount of material sticking to the punch during the compression were recorded.
Approximately 30 mg of Form F and Form I in WO2017002095A1 were weighed, added into the dies of a φ8 mm round tooling, compressed at 10 kN and held for about 30 s. The amount of material sticking to the punch was weighed. The compression was repeated twice and the cumulative amount and average amount of material sticking to the punch during the compression were recorded.
Approximately 30 mg of Form G and Form I in WO2017002095A1 were weighed, added into the dies of a φ8 mm round tooling, compressed at 10 kN and held for about 30 s. The amount of material sticking to the punch was weighed. The compression was repeated twice and the cumulative amount and average amount of material sticking to the punch during the compression were recorded.

Setting [4] is: 25° C./60% RH in closed dish, 2 months.
The mark [5] stands for this setting: 25° C./60% RH in open and closed dishes.
Setting [6] is: 25° C./60% RH in open dish, 2 months.
Where [7] appears, read: 40° C./75% RH in closed dish, 2 months.
Setting [8] is: 40° C./75% RH in open dish, 2 months.

For the compound `CC#CC(=O)N1CCC[C@H]1c1nc(-c2ccc(C(=O)Nc3ccccn3)cc2)c2c(N)nccn12` [Form CS15, (S)-4-(8-amino-3-(1-(but-2-ynoyl)pyrrolidin-2-yl)imidazo[1,5-a]pyrazin-1-yl)-N-(pyridin-2-yl)benzamide], the “Time kept stable (crystalline state doesn't change)” value in series [1] (25° C./60% RH in closed dish) and in series [1] (25° C./60% RH in open dish) was “at least 2 months” in each case. In addition, the Solid form result in series [1] (setting [4]), in series [1] (setting [6]) and in series [1] (Initial) was “Form CS15” each time. The “Chemical purity on storage” value in series [1] (setting [5]) is “remains substantially unchanged”. The Hygroscopicity result in series [2] is “slightly hygroscopic (Increase in mass is less than 2 percent and equal to or greater than 0.2 percent)”. This compound also came in with a Weight gain in series [2] of 1.78%.
`CC#CC(=O)N1CCC[C@H]1c1nc(-c2ccc(C(=O)Nc3ccccn3)cc2)c2c(N)nccn12` [Form F, (S)-4-(8-amino-3-(1-(but-2-ynoyl)pyrrolidin-2-yl)imidazo[1,5-a]pyrazin-1-yl)-N-(pyridin-2-yl)benzamide]: the “Average amount (material sticking to the punch)” value (“Average amount” for short) in series [3] stood at 30 µg. Besides, the “Cumulative amount (material sticking to the punch)” value (“Cumulative amount” for short) in series [3] worked out at 60 µg. The “Time kept stable (crystalline state doesn't change)” value in series [1] (25° C./60% RH in closed dish), in series [1] (25° C./60% RH in open dish), in series [1] (40° C./75% RH in closed dish) and in series [1] (40° C./75% RH in open dish) was “at least 2 months” throughout. Moreover, the Solid form entry in series [1] (setting [4]), in series [1] (setting [6]), in series [1] (setting [7]) and in series [1] (setting [8]) was “Form F” in each case. For the same compound, the “Chemical purity on storage” value in series [1] (setting [5]) is listed as “remains substantially unchanged”. Also, in series [2], the Hygroscopicity entry is on record as “non hygroscopic or almost non hygroscopic (Increase in mass is less than 0.2%)”. In series [2], this compound yielded a Weight gain of 0.09%.
Consider `CC#CC(=O)N1CCC[C@H]1c1nc(-c2ccc(C(=O)Nc3ccccn3)cc2)c2c(N)nccn12` [Form G, (S)-4-(8-amino-3-(1-(but-2-ynoyl)pyrrolidin-2-yl)imidazo[1,5-a]pyrazin-1-yl)-N-(pyridin-2-yl)benzamide], for which, in series [3], the “Average amount” value came out at 30 µg and the “Cumulative amount” value was 60 µg. In series [1] (25° C./60% RH in closed dish), the “Time kept stable (crystalline state doesn't change)” value was “at least 2 months” and the “Chemical purity on storage” value is “remains substantially unchanged”. The Solid form entry in series [1] (setting [4]) is on record as “Form G”. The Solid form result in series [1] (Initial) is given as “Form G”.
With `CC#CC(=O)N1CCC[C@H]1c1nc(-c2ccc(C(=O)Nc3ccccn3)cc2)c2c(N)nccn12` [Form A, (S)-4-(8-amino-3-(1-(but-2-ynoyl)pyrrolidin-2-yl)imidazo[1,5-a]pyrazin-1-yl)-N-(pyridin-2-yl)benzamide], the “Average amount” value in series [3] was 40 µg. In addition, in series [3], the “Cumulative amount” value was 80 µg. Besides, the “Time kept stable (crystalline state doesn't change)” value in series [1] (25° C./60% RH in closed dish), in series [1] (25° C./60% RH in open dish), in series [1] (40° C./75% RH in closed dish) and in series [1] (40° C./75% RH in open dish) was “at least 2 months” in each case. For the same compound, the Solid form result in series [1] (setting [4]), in series [1] (setting [6]), in series [1] (setting [7]), in series [1] (setting [8]) and in series [1] (Initial) was “Form A” in each case. Also, in series [1] (setting [5]), the “Chemical purity on storage” value is on record as “remains substantially unchanged”. Besides, the Hygroscopicity result in series [2] is “slightly hygroscopic (Increase in mass is less than 2 percent and equal to or greater than 0.2 percent)”. For the same compound, the Weight gain in series [2] is 0.99%.
